Results on two compounds are retold here after US20030187261A1, “Purine derivatives, process for their preparation and use thereof” (priority 2000, published 2003).

Some results are limits rather than exact numbers.

The test system of test [1] is β-adrenergic receptors. Description: isoproterenol-induced intracellular cAMP synthesis in rat C6 glioma. It is filed as cell-based. The note with it: cAMP induced by 5 μM (−) isoproterenol. How it is done: Rat C6 glioma (ATCC N° CCL107) was cultivated in monolayer in serum-free chemically defined medium containing Ham's F10/minimal essential medium (1:1 vol/vol), 2 mM L-glutamine, 1% (vol/vol) minimal essential medium vitamins (100×), 1% (vol/vol) minimal essential medium nonessential amino acids (100×), 100 U/ml penicillin, 100 μg/ml streptomycin and 30 nM sodium selenite. Incubation was at 37° C. in a humidified atmosphere. Assays were performed in the logaritmic growth phase at a density of 2.5×10^5 cells/cm^2. Intracellular cAMP synthesis was induced by addition of 5 μM (−) isoproterenol. After 30 min incubation at 37° C. the medium was removed and the cellular amount of cAMP determined using the cAMP-enzyme immunoassay kit of Amersham. The IC50 is determined from a dose-response curve in duplicate. The effect of seven purine-analogs was measured after simultaneous addition with isoproterenol.
As P2Y1-like and A2 purinergic receptors, negatively and positively coupled to adenylate cyclase respectively, are present on rat C6 glioma the modulation of the synthesis of cAMP may be due to inhibition of the activation of β-adrenergic receptors by isoproterenol or to activation of purinergic receptors.

In test [2] the test system is T-lymphocyte leukemia Molt3 cell line. Description: cell growth of Molt3 cell line, flow cytometric cell count. It is filed as cell-based, human. The note with it: 96 hours of culture. How it is done:
(§1) Cell lines: Human leukemic cell lines were obtained from the American Type Culture Collection (ATCC, Rockville, Md., USA). They were cultured in Iscove's Modified Dulbecco's Medium (IMDM) supplemented with 10% heat inactivated fetal calf serum (FCS), 200 U/ml penicillin, 200 μg/ml streptomycin and 1 μg/ml amphotericin B. Cells were cultured in a 5% CO2-95% air fully humidified incubator. For effects on clonogenic output, 1000 cells/well were plated in duplicate in methylcellulose (0.9%), supplemented with 20% FCS and cultured for 14 days.
Cells were plated at 10000 per well in 200 μl IMDM medium and incubated with 0-50 μM of the compounds of the invention (Table 5), by addition of the drugs directly to the culture medium and incubated at 37° C. for 96 hours. Absolute cell number was determined by addition of a known concentration of Fluoresbrite microspheres (FITC) (Polysciences, Inc.). The absolute number of cells per well was calculated as: {(total number of beads added per well)/(number of beads measured)}×(number of measured cells in the gate of interest). All analyses were performed with a FACScan (BD), using CELLQuest software (Becton Dickinson).
The response of the myeloid leukemia KG1 and T-lymphocyte leukemia Molt3 cell lines to the cytostatic effect of the novel compounds was determined using the above-mentioned standardized bead suspension that was used to determine the absolute cell number by flow cytometric (FCM) measurement. Cells were grown in the presence of increasing concentrations of the compounds of the invention.

In test [3] the test system is CD34+ hematopoietic progenitors (HPC) from adult bone marrow. Nature of the test: myeloid colony-forming unit (CFU) assay. As to conditions: for IC50: 14 days, methylcellulose, total colony output; for output of the different types of myeloid colonies (CFU-E, CFU-G and CFU-M): scored differentially. It is filed as cell-based, human.
Test [4] deals with KG1. Description: clonogenic output of KG1 in methylcellulose. It is filed as cell-based, human. As to conditions: 25 μM, 14 days. The procedure: as §1
Clonogenic output of KG1 was tested in methylcellulose with 25 μM of some of the novel compounds.

Test [5] has as its system B16 melanoma. Description: MTT cytotoxicity assay, B16. It is filed as cell-based, mouse. The note with it: Mus musculus, B16, 72 hours (TCS50 in the method). In short, it runs like this:
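Cells pre-incubated 24 h, then exposed to six 4-fold dilutions (top well concentration typically 266.7 μM) in duplicate for 72 h at 37 °C, 5% CO2. MTT read-out, SDS-solubilized formazan measured at 540 nm. TCS50, the concentration lethal to 50% of tumour cells, derived from dose-response curves.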
(Formazan colour is commonly taken as a measure of viable cells.)

In the case of `CCCCCCNc1nc(NC(CO)c2ccccc2)c2ncn(C(C)C)c2n1` (stereo not drawn) [P23, 2-(hexylamino)-6-(1-phenyl-2-hydroxyethylamino)-9-isopropylpurine], in test [1] (30 min, rat C6 glioma), the Effect result is “inhibition”. Besides, the IC50 in test [1] (30 min, read-out: I50) was 15 ± 2 µM; in test [2] (Homo sapiens, MOLT-3), 16 ± 0.8 µM; in test [3] (Homo sapiens, 336 h) it was more than 50 µM; in test [5], 36.8 µM. For the same compound, the “output of the different types of myeloid colonies (CFU-E, CFU-G and CFU-M)” value in test [3] is on record as “significantly lower colony output”. For the same compound, the “Colony output vs. control cultures without novel compound” value in test [4] came to 19%.
With “2-(3-aminoethylamino)-6-(3,3-dihydroxybenzyl)amino-9-isopropylpurine [P28]”, the “Effect: fold activation” value in test [1] (50 μM) is 1.3-fold activation. Moreover, the IC50 stood at 14 ± 1.8 µM in test [2] and 8.5 µM in test [3]. Moreover, in test [3], the “output of the different types of myeloid colonies (CFU-E, CFU-G and CFU-M)” value was “significantly lower colony output”. Also, the “Colony output vs. control cultures without novel compound” value in test [4] was 0%.
